Earlier results as cited in patent US12163116B2, “Automated bioreactor with foam collector” (OHIO STATE INNOVATION FOUNDATION, priority 2018, dated 2024).

What was measured:
[1] = system: Gram-positive bacteria including species of Listeria, Clostridium, Lactobacillus, Staphylococcus, Bacillus
L. innocua = settings: against L. innocua; taught by prior art
[2] = compared to commercially available lantibiotics such as nisin

paenibacillin
antimicrobial potency [1]: potent against Gram-positive bacteria | minimum inhibitory concentration (L. innocua): 4 µg/mL | temperature and pH stability [2]: relatively high temperature and pH stability | water solubility: highly water soluble
